Holding throughout (settings): Table 35
One assay has as its target MLKL (full length) (Homo sapiens (Human), UniProt Q8NB16). As to the kind of experiment: KINOMEscan binding assay, MLKL (full length). The procedure:
(§1) Kinase assays. For most assays, kinase-tagged T7 phage strains were grown in parallel in 24-well blocks in an E. coli host derived from the BL21 strain. E. coli were grown to log-phase and infected with T7 phage from a frozen stock (multiplicity of infection=0.4) and incubated with shaking at 32° C. until lysis (90-150 minutes).
(§2) The Hill Slope was set to −1.

The next assay addresses RIP1 (Homo sapiens (Human), UniProt Q13546). The assay is described as follows: KINOMEscan binding assay, RIP1.
In a further assay the target is RIP3 (Homo sapiens (Human), UniProt Q9Y572). The assay is described as follows: KINOMEscan binding assay, RIP3. The procedure:
as §1, §2

Chain of RIP1 (Q13546 whole entry): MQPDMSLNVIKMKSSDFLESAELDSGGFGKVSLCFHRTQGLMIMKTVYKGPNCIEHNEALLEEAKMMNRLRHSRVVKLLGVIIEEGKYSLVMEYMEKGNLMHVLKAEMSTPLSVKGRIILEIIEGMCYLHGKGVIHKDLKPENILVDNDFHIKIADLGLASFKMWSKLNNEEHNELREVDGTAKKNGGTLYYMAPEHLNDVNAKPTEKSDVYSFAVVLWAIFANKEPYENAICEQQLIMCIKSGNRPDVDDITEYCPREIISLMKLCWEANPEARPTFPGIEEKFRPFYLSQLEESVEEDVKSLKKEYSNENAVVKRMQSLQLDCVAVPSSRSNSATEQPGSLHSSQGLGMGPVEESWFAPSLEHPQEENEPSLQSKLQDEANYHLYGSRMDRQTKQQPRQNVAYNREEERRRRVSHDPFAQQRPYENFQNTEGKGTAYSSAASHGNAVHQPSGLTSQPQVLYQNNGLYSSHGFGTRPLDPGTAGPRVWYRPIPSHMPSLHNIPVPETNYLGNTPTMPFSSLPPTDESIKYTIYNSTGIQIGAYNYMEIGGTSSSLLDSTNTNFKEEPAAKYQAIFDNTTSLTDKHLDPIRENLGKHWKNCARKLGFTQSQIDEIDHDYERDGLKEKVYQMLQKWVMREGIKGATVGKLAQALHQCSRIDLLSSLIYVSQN
Chain of RIP3 (Q9Y572 whole entry): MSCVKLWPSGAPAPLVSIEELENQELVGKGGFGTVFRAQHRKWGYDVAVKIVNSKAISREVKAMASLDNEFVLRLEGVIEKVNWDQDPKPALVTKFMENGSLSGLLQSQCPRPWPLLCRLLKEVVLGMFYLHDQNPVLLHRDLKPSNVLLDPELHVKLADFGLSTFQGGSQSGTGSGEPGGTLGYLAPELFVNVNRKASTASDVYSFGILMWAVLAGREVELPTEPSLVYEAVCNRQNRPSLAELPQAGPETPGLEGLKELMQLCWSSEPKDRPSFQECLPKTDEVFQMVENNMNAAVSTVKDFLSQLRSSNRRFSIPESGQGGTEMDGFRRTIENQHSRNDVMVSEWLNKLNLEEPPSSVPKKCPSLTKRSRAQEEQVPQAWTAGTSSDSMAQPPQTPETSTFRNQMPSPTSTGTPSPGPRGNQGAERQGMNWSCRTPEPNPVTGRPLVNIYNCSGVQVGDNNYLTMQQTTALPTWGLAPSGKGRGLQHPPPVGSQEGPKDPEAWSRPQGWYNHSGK
Chain of MLKL (full length) (Q8NB16 whole entry): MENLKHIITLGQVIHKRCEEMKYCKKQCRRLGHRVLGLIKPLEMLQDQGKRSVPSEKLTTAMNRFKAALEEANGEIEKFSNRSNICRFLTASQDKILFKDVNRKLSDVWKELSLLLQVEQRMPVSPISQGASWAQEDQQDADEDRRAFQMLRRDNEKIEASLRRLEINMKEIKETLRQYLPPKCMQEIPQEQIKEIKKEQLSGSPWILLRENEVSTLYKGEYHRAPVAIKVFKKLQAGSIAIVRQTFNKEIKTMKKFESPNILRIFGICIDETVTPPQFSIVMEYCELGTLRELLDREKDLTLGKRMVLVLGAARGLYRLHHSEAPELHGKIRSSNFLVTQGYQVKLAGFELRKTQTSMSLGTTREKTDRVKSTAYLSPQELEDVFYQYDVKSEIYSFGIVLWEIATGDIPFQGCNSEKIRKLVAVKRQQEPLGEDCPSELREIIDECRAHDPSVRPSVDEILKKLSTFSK

`CCS(=O)(=O)Nc1ccc(-c2n[nH]c(Nc3ccc(C#N)cc3)c2C(N)=O)cc1` [Compound 102, 5-((4-cyanophenyl)amino)-3-(4-(ethylsulfonamido)phenyl)-1H-pyrazole-4-carboxamide]: the Kd was below 0.01 µM on MLKL (full length), above 30 µM at RIP1 and above 30 µM on RIP3.
With `CCS(=O)(=O)Nc1ccc(-c2n[nH]c(Nc3ccnc(C(F)(F)F)c3)c2C(N)=O)cc1` [Compound 104, 3-(4-(ethylsulfonamido)phenyl)-5-((2-(trifluoromethyl)pyridin-4-yl)amino)-1H-pyrazole-4-carboxamide], the Kd on MLKL (full length) was below 0.01 µM; at RIP1 it was above 30 µM; on RIP3, above 30 µM.
In the case of `CCOc1cc(Nc2[nH]nc(-c3ccc(NS(=O)(=O)CC)cc3)c2C(N)=O)ccn1` [Compound 105, 5-((2-ethoxypyridin-4-yl)amino)-3-(4-(ethylsulfonamido)phenyl)-1H-pyrazole-4-carboxamide], the results for the Kd on MLKL (full length), at RIP1 and at RIP3 were below 0.01 µM, above 30 µM and above 30 µM, respectively.
As to `CCS(=O)(=O)Nc1ccc(-c2n[nH]c(Nc3ccnc(OCC(F)F)c3)c2C(N)=O)cc1` [Compound 106, 5-((2-(2,2-difluoroethoxy)pyridin-4-yl)amino)-3-(4-(ethylsulfonamido)phenyl)-1H-pyrazole-4-carboxamide], the dissociation constant (Kd) at MLKL (full length) is below 0.01 µM; at RIP1, above 30 µM; on RIP3 it was above 30 µM.
Consider `CCS(=O)(=O)Nc1ccc(-c2n[nH]c(Nc3cnccn3)c2C(N)=O)cc1` [Compound 108, 3-(4-(ethylsulfonamido)phenyl)-5-(pyrazin-2-ylamino)-1H-pyrazole-4-carboxamide], for which the Kd is below 0.01 µM at MLKL (full length), above 30 µM at RIP1 and above 30 µM at RIP3.
Consider `COCCOc1cc(Nc2[nH]nc(-c3ccc(NS(=O)(=O)CC#N)cc3)c2C(N)=O)ccn1` [Compound 110, 3-(4-((cyanomethyl)sulfonamido)phenyl)-5-((2-(2-methoxyethoxy)pyridin-4-yl)amino)-1H-pyrazole-4-carboxamide], for which the Kd was below 0.01 µM on MLKL (full length), above 30 µM at RIP1 and above 30 µM at RIP3.
On to `CCS(=O)(=O)Nc1ccc(-c2n[nH]c(Nc3cc(C)nc(C)c3)c2C(N)=O)cc1` [Compound 112, 5-((2,6-dimethylpyridin-4-yl)amino)-3-(4-(ethylsulfonamido)phenyl)-1H-pyrazole-4-carboxamide], for which the values for the Kd at MLKL (full length), at RIP1 and at RIP3 were below 0.01 µM, above 30 µM and above 30 µM, respectively.
Turning to `CCS(=O)(=O)Nc1ccc(-c2n[nH]c(Nc3ccnc(C)c3)c2C(N)=O)cc1` [Compound 113, 3-(4-(ethylsulfonamido)phenyl)-5-((2-methylpyridin-4-yl)amino)-1H-pyrazole-4-carboxamide], the Kd at MLKL (full length) is below 0.01 µM; at RIP1 it was above 30 µM; at RIP3, above 30 µM.
`CCS(=O)(=O)Nc1ccc(-c2n[nH]c(Nc3ccnc(OC)n3)c2C(N)=O)cc1` [Compound 123, 3-(4-(ethylsulfonamido)phenyl)-5-((2-methoxypyrimidin-4-yl)amino)-1H-pyrazole-4-carboxamide]: the figures for the Kd on MLKL (full length), at RIP1 and at RIP3 were below 0.01 µM, above 30 µM and above 30 µM, respectively.
For the compound `CCS(=O)(=O)Nc1ccc(-c2n[nH]c(Nc3ccccc3)c2C(N)=O)cc1` [Compound 124, 3-(4-(ethylsulfonamido)phenyl)-5-(phenylamino)-1H-pyrazole-4-carboxamide], the Kd on MLKL (full length) was below 0.01 µM; on RIP1, above 30 µM; at RIP3, above 30 µM.
For `CCS(=O)(=O)Nc1ccc(-c2n[nH]c(Nc3cccc(C(F)(F)F)n3)c2C(N)=O)cc1` [Compound 126, 3-(4-(ethylsulfonamido)phenyl)-5-((6-(trifluoromethyl)pyridin-2-yl)amino)-1H-pyrazole-4-carboxamide], the dissociation constant (Kd) at MLKL (full length) was below 0.01 µM; at RIP1 it was above 30 µM; at RIP3, above 30 µM.
`NC(=O)c1c(-c2ccc(NS(=O)(=O)CC(F)(F)F)cc2)n[nH]c1Nc1cnccn1` [Compound 137, 5-(pyrazin-2-ylamino)-3-(4-((2,2,2-trifluoroethyl)sulfonamido)phenyl)-1H-pyrazole-4-carboxamide]: the Kd on MLKL (full length) is below 0.01 µM; on RIP1, above 30 µM; at RIP3, above 30 µM.
For the compound `NC(=O)c1c(-c2ccc(NS(=O)(=O)CC(F)(F)F)cc2OCc2ccc(F)cc2)n[nH]c1Nc1cnccn1` [Compound 139, 3-(2-((4-fluorobenzyl)oxy)-4-((2,2,2-trifluoroethyl)sulfonamido)phenyl)-5-(pyrazin-2-ylamino)-1H-pyrazole-4-carboxamide], the results for the dissociation constant Kd at MLKL (full length), on RIP1 and on RIP3 were below 0.01 µM, above 30 µM and above 30 µM, respectively.
With `NC(=O)c1c(-c2ccc(NS(=O)(=O)CC(F)(F)F)cc2OCc2ccc(F)cc2)n[nH]c1Nc1cccc(C(F)(F)F)n1` [Compound 140, 3-(2-((4-fluorobenzyl)oxy)-4-((2,2,2-trifluoroethyl)sulfonamido)phenyl)-5-((6-(trifluoromethyl)pyridine-2-yl)amino)-1H-pyrazole-4-carboxamide], the Kd at MLKL (full length) is below 0.01 µM; at RIP1 it was above 30 µM; at RIP3, above 30 µM.
On to `COc1cnc(Nc2[nH]nc(-c3ccc(NS(=O)(=O)CC(F)(F)F)c(OCc4ccc(F)cc4)c3)c2C(N)=O)cn1` [Compound 143, 3-(3-((4-fluorobenzyl)oxy)-4-((2,2,2-trifluoroethyl)sulfonamido)phenyl)-5-((5-methoxypyrazin-2-yl)amino)-1H-pyrazole-4-carboxamide], for which the dissociation constant (Kd) at MLKL (full length) was below 0.01 µM; on RIP1, above 30 µM; on RIP3, above 30 µM.
For `NC(=O)c1c(-c2ccc(NS(=O)(=O)CC(F)(F)F)c(OC3(c4ccc(F)cc4)CC3)c2)n[nH]c1Nc1cnccn1` [Compound 144, 3-(3-(1-(4-fluorophenyl)cyclopropoxy)-4-((2,2,2-trifluoroethyl)sulfonamido)phenyl)-5-(pyrazin-2-ylamino)-1H-pyrazole-4-carboxamide], the Kd was below 0.01 µM on MLKL (full length), above 30 µM on RIP1 and above 30 µM on RIP3.
On to `NC(=O)c1c(-c2ccc(NS(=O)(=O)C(F)F)cc2)n[nH]c1Nc1ccc(C(F)(F)F)cn1` [Compound 145, 3-(4-((difluoromethyl)sulfonamido)phenyl)-5-((5-(trifluoromethyl)pyridine-2-yl)amino)-1H-pyrazole-4-carboxamide], for which the Kd is below 0.01 µM at MLKL (full length), above 30 µM on RIP1 and above 30 µM on RIP3.
In the case of `Cc1cnc(Nc2[nH]nc(-c3ccc(NS(=O)(=O)CC(F)(F)F)c(OCc4ccc(Cl)c(F)c4)c3)c2C(N)=O)cn1` [Compound 146, 3-(3-((4-chloro-3-fluorobenzyl)oxy)-4-((2,2,2-trifluoroethyl)sulfonamido)phenyl)-5-((5-methylpyrazin-2-yl)amino)-1H-pyrazole-4-carboxamide], the Kd at MLKL (full length) was below 0.01 µM; on RIP1, above 30 µM; at RIP3 it was above 30 µM.
Turning to `NC(=O)c1c(-c2ccc(NS(=O)(=O)C(F)F)c(Oc3ccc(F)cc3)c2)n[nH]c1Nc1cccc(C(F)(F)F)n1` [Compound 147, 3-(4-((difluoromethyl)sulfonamido)-3-(4-fluorophenoxy)phenyl)-5-((6-(trifluoromethyl)pyridine-2-yl)amino)-1H-pyrazole-4-carboxamide], the Kd is below 0.01 µM at MLKL (full length), above 30 µM on RIP1 and above 30 µM at RIP3.

Usually Kd stands for the constant that tells how readily two partners part at equilibrium. Low values mean tighter binding, high ones weaker binding.

The record behind these values is US20250074891A1 (Anaxis Pharma Pty Ltd., priority 2021, published 2025).
